Target: IGF-1R (Homo sapiens (Human), UniProt P08069)
Test: Example B-1: IGF-1R Assay (PC3 cells, IGF1 stimulation, AlphaLISA)
Assay type: cell-based
Conditions: 200 ng/mL IGF1 stimulation, read-out: Biological Activity against IGF-1R IC50
In short: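 Readout is AlphaLISA signal from lysed PC3 cells, expressed as % inhibition versus vehicle and EC80 controls and banded by IC50. Before lysis, the cells were starved of serum for 2 h, exposed to 3× serially diluted compound for 2 h, and stimulated for 30 min with 200 ng/mL IGF1 (final).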

Chain of IGF-1R (P08069 31-1367): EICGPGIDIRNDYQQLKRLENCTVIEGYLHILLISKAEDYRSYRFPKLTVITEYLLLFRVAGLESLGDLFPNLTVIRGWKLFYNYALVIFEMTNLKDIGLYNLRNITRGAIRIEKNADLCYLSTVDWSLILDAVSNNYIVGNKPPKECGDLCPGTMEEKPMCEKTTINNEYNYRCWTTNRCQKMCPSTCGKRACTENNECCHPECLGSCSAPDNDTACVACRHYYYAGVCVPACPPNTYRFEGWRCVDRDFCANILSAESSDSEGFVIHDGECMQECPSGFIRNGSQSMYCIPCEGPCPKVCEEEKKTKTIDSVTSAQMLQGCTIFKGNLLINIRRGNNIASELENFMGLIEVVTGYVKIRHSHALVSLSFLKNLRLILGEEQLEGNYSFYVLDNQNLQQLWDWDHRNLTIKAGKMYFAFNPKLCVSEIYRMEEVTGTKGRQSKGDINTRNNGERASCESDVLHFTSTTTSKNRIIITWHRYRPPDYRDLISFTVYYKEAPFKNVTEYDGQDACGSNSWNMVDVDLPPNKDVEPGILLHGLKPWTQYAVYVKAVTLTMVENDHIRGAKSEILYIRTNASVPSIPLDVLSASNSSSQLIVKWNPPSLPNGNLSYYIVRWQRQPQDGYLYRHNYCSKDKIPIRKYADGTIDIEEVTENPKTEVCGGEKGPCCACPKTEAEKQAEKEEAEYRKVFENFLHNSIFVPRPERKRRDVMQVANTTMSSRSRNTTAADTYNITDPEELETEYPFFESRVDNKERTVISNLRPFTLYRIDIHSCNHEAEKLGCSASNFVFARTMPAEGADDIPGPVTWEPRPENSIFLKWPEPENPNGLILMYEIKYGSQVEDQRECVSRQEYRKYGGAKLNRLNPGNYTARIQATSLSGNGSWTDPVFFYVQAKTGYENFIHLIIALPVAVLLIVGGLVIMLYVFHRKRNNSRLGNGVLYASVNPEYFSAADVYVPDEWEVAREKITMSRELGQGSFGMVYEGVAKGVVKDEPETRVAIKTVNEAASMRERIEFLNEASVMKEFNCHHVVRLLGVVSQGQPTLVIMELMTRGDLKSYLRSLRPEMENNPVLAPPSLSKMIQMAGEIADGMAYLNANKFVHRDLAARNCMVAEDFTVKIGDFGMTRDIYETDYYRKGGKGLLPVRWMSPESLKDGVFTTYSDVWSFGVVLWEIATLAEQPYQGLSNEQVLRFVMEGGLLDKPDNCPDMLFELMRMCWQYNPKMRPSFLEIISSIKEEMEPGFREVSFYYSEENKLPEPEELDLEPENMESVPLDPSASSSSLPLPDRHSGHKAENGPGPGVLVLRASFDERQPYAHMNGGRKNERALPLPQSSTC

SMILES | IC50
COc1cc(Nc2nccc(Nc3cnc4ccc(Cl)cc4c3)n2)ccc1OC1CN(C)C1 [Compound 293, 4-(6-chloro-3-quinolylamino)-2-[3-methoxy-4-(1-methyl-3-azetidinyloxy)phenylamino] pyrimidine] | > 10000 nM
CN1CC(Oc2ccc(Nc3nccc(Nc4cnc5ccc(Cl)cc5c4)n3)cc2)C1 [Compound 294, 4-(6-chloro-3-quinolylamino)-2-[p-(1-methyl-3-azetidinyloxy)phenylamino] pyrimidine] | 2000 to 10000 nM
CN1CC(Oc2ccc(Nc3nccc(Nc4cnc5ccccc5c4)n3)cc2)C1 [Compound 295, 2-[p-(1-methyl-3-azetidinyloxy)phenylamino]-4-(3-quinolylamino)pyrimidine] | 2000 to 10000 nM
COc1cc(Nc2nccc(Nc3cc4ccccc4nc3C(=O)O)n2)ccc1O[C@H]1C[C@@H](N(C)C)C1 [Compound 296, 3-(2-{3-methoxy-4-[(1s,3s)-3-(dimethylamino)cyclobutoxy]phenylamino}-4-pyrimidinylamino)-2-quinolinecarboxylic acid] | > 10000 nM
COc1cc(Nc2nccc(Nc3cnc4c(F)c(F)ccc4c3)n2)ccc1O[C@H]1C[C@@H](N(C)C)C1 [Compound 298, 4-(7,8-difluoro-3-quinolylamino)-2-{3-methoxy-4-[(1s,3s)-3-(dimethylamino)cyclobutoxy]phenylamino}pyrimidine] | ≤ 500 nM
COc1cc(Nc2nccc(Nc3cnc4cc[nH]c4c3)n2)ccc1O[C@H]1C[C@@H](N(C)C)C1 [Compound 299, 4-(1H-1,4-diazainden-6-ylamino)-2-{3-methoxy-4-[(1s,3s)-3-(dimethylamino)cyclobutoxy]phenylamino}pyrimidine] | 500 to 2000 nM
COc1cc(Nc2nccc(Nc3cnc4[nH]ncc4c3)n2)ccc1O[C@H]1C[C@@H](N(C)C)C1 [Compound 300, 2-{3-methoxy-4-[(1s,3s)-3-(dimethylamino)cyclobutoxy]phenylamino}-4-(1H-1,2,7-triazainden-5-ylamino)pyrimidine] | 500 to 2000 nM
COc1cc(Nc2nccc(Nc3cnc4[nH]ccc4c3)n2)ccc1O[C@H]1C[C@@H](N(C)C)C1 [Compound 301, 4-(1H-1,7-diazainden-5-ylamino)-2-{3-methoxy-4-[(1s,3s)-3-(dimethylamino)cyclobutoxy]phenylamino}pyrimidine] | ≤ 500 nM
C#Cc1ccc2ncc(Nc3ccnc(Nc4ccc(O[C@H]5C[C@@H](N(C)C)C5)c(OC)c4)n3)cc2c1 [Compound 302, 4-(6-ethynyl-3-quinolylamino)-2-{3-methoxy-4-[(1s,3s)-3-(dimethylamino)cyclobutoxy]phenylamino}pyrimidine] | ≤ 500 nM
COc1cc(Nc2nccc(Nc3cnc4c(c3)CC3(CC4)OCCO3)n2)ccc1OCCCN1CCCCC1 [Compound 303, 4-(7′,8′-dihydro-5′H-spiro[1,3-dioxolane-2,6′-quinolin]-3′-ylamino)-2-[3-methoxy-4-(3-piperidinopropoxy)phenylamino] pyrimidine] | ≤ 500 nM
COc1cc(Nc2nccc(Nc3cnc4c(=O)n(C)ncc4c3)n2)ccc1O[C@H]1C[C@@H](N(C)C)C1 [Compound 304, 3-(2-{3-methoxy-4-[(1s,3s)-3-(dimethylamino)cyclobutoxy]phenylamino}-4-pyrimidinylamino)-7-methyl-1,6,7-triaza-8(7H)-naphthalenone] | > 10000 nM
COc1cc(Nc2nccc(Nc3ncc4c(Cl)cccc4n3)n2)ccc1O[C@H]1C[C@@H](N(C)C)C1 [Compound 306, 4-(5-chloro-2-quinazolinylamino)-2-{3-methoxy-4-[(1s,3s)-3-(dimethylamino)cyclobutoxy]phenylamino}pyrimidine] | > 10000 nM
COc1cc(Nc2nccc(Nc3ncc4ccc(Br)cc4n3)n2)ccc1O[C@H]1C[C@@H](N(C)C)C1 [Compound 307, 4-(7-bromo-2-quinazolinylamino)-2-{3-methoxy-4-[(1s,3s)-3-(dimethylamino)cyclobutoxy]phenylamino}pyrimidine] | 2000 to 10000 nM
O=C1CN([C@H]2CC[C@@H](Oc3ccc(Nc4nccc(Nc5cnc6ccc(Cl)cc6c5)n4)cc3)CC2)CCN1 [Compound 308] | ≤ 500 nM

— patent US20250171431A1, “HETEROCYCLIC INHIBITORS OF IGF-1R FOR TREATMENT OF DISEASE” (HORIZON THERAPEUTICS IRELAND DAC, priority 2023, published 2025)
